Laboratory results as given in patent US7326721B2 (Hypnion, Inc., priority 2003, dated 2008).

Key:
Sigma, Non-selective = assay: Table 12 panel: Sigma; format: binding; conditions: 1.0E−6, average N=2
Text: (§1) The percentage inhibition (average; N=2) for these receptors is shown below in Table 12.
(§2) Values in Table 12 are expressed as percentage inhibition of specific binding, and these values represent the average of replicate tubes at each of the concentrations tested.

[1] = tested on: Vasoactive Intestinal Peptide, Non-selective; assay: Table 12 panel: VIP; format: binding; conditions: 1.0E−6, average N=2
Text: as §1, §2

Esterase, Acetylcholine = Esterase, Acetylcholine (Homo sapiens, UniProt P22303); assay: Table 12 panel: Acetylcholine esterase; format: biochemical; conditions: 1.0E−6, average N=2
Text: as §1, §2

Endothelin, ET-A (h) = Endothelin, ET-A (h) (Homo sapiens, UniProt P25101); assay: Table 12 panel: Endothelin, ET-A; conditions: 1.0E−6, average N=2, read-out: percentage inhibition of specific binding
Sequence of Endothelin, ET-A (h) (P25101 21-427): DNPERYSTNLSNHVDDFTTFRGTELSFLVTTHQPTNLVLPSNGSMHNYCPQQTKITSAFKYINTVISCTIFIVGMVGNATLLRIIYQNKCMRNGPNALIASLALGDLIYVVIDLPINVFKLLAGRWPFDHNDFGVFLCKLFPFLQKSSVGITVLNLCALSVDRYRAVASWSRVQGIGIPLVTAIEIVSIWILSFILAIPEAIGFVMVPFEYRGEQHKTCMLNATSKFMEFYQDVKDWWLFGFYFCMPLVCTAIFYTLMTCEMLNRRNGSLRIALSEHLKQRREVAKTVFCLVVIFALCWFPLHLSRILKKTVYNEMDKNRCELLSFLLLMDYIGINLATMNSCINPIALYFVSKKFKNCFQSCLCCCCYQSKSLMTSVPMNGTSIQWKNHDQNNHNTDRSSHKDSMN
Text: as §1, §2

Angiotensin II, AT1 (h) = Angiotensin II, AT1 (h) (Homo sapiens, UniProt P30556); assay: Table 12 panel: Angiotensin II, AT1; conditions: 1.0E−6, average N=2, read-out: percentage inhibition of specific binding
Sequence of Angiotensin II, AT1 (h) (P30556 whole entry): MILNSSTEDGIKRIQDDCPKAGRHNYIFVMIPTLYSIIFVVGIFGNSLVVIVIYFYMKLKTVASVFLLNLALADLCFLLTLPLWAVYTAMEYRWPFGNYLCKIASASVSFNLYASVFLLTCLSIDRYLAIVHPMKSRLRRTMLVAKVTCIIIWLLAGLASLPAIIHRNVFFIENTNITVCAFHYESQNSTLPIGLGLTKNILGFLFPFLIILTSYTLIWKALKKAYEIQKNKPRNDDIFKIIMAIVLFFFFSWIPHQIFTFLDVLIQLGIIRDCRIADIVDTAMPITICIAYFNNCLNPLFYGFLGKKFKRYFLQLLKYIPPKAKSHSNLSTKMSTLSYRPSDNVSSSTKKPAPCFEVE
Text: as §1, §2

[2] = target: Thyrotropin Releasing Hormone, TRH (Homo sapiens, UniProt P34981); assay: Table 12 panel: TRH; conditions: 1.0E−6, average N=2, read-out: percentage inhibition of specific binding
Text: as §1, §2

[3] = target: Oxidase, MAO-B, Peripheral (Homo sapiens, UniProt P27338); assay: Table 12 panel: MAO-B; format: biochemical; conditions: 1.0E−6, average N=2
Sequence of Oxidase, MAO-B, Peripheral (P27338 whole entry): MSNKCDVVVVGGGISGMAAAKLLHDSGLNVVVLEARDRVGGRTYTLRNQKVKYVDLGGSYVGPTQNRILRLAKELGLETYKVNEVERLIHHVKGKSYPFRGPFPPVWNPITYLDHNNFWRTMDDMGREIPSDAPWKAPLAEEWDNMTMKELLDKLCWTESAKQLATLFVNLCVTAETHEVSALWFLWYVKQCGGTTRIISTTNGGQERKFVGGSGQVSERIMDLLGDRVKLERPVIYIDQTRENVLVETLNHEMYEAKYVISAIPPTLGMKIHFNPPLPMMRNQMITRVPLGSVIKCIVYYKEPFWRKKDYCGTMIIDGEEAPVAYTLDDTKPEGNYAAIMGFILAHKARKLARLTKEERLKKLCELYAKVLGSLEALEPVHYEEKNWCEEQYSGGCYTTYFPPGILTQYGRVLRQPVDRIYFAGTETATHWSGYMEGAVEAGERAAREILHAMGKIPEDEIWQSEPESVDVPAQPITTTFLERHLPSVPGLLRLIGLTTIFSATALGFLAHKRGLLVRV
Text: as §1, §2

GABA-B = GABA-B (Homo sapiens, UniProt Q9UBS5); assay: Table 12 panel: GABA-B; conditions: 1.0E−6, average N=2, read-out: percentage inhibition of specific binding
Sequence of GABA-B (Q9UBS5 15-961 limits assumed): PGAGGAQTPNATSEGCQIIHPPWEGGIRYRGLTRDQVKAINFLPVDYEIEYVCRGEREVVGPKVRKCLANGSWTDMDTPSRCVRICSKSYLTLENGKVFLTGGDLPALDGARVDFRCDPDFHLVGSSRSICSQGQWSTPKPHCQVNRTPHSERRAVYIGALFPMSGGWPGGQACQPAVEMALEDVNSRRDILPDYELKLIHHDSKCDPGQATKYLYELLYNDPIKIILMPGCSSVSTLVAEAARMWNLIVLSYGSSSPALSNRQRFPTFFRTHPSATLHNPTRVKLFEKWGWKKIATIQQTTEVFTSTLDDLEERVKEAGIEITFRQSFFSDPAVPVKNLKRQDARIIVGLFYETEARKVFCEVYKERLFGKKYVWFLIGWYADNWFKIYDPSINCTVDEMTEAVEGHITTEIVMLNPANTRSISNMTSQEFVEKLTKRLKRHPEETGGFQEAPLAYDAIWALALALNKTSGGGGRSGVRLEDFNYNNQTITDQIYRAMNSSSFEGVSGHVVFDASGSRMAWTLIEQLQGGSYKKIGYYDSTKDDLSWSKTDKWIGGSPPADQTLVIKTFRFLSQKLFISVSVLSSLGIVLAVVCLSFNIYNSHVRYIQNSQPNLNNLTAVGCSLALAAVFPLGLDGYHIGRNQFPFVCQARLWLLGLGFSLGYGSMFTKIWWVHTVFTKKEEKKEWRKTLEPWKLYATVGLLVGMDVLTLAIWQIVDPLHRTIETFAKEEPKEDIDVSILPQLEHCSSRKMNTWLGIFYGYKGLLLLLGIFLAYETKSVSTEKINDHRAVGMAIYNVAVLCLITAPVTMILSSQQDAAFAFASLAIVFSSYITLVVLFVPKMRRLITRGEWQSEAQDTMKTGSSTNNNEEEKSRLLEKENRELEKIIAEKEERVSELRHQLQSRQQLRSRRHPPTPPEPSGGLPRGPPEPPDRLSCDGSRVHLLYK
Sequence of GABA-B (O75899 42-941 partner): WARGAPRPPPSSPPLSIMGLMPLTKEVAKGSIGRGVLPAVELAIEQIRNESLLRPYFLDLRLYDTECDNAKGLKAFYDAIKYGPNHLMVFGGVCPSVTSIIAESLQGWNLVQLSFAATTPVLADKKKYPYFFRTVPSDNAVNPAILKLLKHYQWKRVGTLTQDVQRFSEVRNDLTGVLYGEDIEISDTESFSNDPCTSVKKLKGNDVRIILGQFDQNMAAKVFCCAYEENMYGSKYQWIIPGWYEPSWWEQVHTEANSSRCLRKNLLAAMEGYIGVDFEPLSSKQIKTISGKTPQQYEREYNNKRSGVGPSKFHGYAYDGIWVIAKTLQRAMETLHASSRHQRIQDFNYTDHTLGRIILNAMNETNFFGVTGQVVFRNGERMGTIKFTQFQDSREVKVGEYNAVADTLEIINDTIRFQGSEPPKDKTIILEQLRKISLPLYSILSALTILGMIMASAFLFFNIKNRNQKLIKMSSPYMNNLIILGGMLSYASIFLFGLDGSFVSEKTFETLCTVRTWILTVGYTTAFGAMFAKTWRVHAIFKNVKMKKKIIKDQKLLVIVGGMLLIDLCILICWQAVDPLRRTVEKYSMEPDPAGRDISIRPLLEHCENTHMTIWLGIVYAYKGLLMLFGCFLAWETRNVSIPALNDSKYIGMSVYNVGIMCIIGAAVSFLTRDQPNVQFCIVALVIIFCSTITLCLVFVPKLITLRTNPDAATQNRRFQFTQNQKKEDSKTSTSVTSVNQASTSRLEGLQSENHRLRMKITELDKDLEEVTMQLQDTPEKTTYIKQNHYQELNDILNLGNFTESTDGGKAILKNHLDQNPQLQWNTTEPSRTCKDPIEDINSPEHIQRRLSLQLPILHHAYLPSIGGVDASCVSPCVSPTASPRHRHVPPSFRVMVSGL
Text: as §1, §2

Histamine, H2 = Histamine, H2 (Homo sapiens, UniProt P25021); assay: Table 12 panel: Histamine, H2; conditions: 1.0E−6, average N=2, read-out: percentage inhibition of specific binding
Sequence of Histamine, H2 (P25021 whole entry): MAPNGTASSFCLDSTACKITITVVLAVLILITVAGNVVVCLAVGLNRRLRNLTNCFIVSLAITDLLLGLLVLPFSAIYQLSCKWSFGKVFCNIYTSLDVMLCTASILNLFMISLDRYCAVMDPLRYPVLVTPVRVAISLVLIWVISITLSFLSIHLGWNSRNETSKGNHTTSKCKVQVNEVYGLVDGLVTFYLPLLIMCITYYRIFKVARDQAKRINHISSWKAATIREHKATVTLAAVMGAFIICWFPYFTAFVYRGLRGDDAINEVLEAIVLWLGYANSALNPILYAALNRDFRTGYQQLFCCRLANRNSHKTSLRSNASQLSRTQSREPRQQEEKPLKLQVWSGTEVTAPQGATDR
Text: as §1, §2

Testosterone (cytosolic) = Testosterone (cytosolic) (Homo sapiens, UniProt P10275); assay: Table 12 panel: Testosterone; conditions: 1.0E−6, average N=2, read-out: percentage inhibition of specific binding
Sequence of Testosterone (cytosolic) (P10275 whole entry): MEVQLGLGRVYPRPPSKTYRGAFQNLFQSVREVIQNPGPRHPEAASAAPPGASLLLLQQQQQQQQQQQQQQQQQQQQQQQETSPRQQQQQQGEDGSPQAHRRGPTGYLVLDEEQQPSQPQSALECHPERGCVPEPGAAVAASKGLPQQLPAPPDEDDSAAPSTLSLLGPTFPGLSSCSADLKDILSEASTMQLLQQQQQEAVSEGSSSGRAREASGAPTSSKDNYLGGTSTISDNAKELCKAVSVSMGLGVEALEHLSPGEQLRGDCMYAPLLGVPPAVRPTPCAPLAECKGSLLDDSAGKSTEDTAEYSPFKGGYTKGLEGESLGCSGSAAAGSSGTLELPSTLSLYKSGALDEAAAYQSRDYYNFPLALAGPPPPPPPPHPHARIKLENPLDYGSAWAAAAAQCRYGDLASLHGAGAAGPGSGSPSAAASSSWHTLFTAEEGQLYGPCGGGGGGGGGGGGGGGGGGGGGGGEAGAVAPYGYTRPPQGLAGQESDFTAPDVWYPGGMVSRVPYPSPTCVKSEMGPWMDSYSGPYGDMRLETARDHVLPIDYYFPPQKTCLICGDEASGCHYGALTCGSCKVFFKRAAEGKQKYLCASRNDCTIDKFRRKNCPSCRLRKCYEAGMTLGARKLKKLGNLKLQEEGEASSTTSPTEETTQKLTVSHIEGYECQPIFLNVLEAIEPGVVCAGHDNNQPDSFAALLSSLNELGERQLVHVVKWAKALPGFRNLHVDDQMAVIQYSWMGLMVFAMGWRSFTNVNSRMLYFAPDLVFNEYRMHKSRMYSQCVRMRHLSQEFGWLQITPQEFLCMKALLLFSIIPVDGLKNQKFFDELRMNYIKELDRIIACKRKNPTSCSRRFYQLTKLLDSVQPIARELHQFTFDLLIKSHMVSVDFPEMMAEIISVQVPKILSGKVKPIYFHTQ
Text: as §1, §2

CYP 2C9 = target: T1, CYP 2C9 (Homo sapiens, UniProt P11712); assay: Cytochrome P450 inhibition: CYP 2C9; format: in vitro ADME; conditions: human microsomal preparation
T1 construct: in a commercially available human microsomal preparation; purchased; host or cells: human microsomal preparation
T1 sequence (P11712 whole entry): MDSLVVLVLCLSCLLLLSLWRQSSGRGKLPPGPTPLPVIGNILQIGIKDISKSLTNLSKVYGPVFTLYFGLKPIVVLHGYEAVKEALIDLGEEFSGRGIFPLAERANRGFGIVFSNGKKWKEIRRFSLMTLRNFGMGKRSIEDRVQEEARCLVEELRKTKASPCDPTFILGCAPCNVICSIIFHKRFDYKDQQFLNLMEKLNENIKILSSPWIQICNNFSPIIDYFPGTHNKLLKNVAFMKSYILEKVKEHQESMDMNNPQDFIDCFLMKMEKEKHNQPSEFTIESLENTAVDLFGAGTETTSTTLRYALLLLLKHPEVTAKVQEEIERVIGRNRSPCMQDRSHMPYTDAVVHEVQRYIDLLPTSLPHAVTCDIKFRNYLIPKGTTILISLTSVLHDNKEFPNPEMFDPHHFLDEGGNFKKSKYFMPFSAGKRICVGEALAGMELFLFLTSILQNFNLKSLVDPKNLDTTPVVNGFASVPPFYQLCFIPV
Protocol: Cytochrome P450 inhibition was studied with HY2901 in vitro. […] In addition, the in vitro rate of metabolism in rat, dog, monkey, and human hepatocyte cultures was determined for HY2901.

[4] = Plasma pharmacokinetics in rats; format: in vivo, rat
Text: (§3) The following pharmacokinetic parameters are computed from the individual plasma concentrations of the modified antihistamine compound using a noncompartmental approach and appropriate validated pharmacokinetic software (e.g., WinNonlin Professional). Concentration values reported as BLQ are set to zero. If concentration data are available, interim calculations are done (non-QC.d data) between periods if possible.
Dose proportionality following study medication is explored by analyzing natural log-transformed pharmacokinetic variables AUC(0-t), AUC(0-inf), and Cmax with a linear model including the natural log-transformed dose as covariates. Dose proportionality is concluded if the 95% confidence interval for the slope of the covariate includes the value of 1. Dose linearity for AUC(0-t), AUC(0-inf), and Cmax is also explored by a linear model. See, e.g., Gibaldi and Perrier, Pharmacokinetics, Second Ed., Marcel Dekker: New York, N.Y. (1982). Nominal sample collection times were used in calculations, except where actual sampling times fell outside the protocol-specified acceptable time ranges. The following parameters were estimated: • Cmax Maximum plasma concentration. • Tmax Time to maximum concentration. • Cmax and Tmax were reported directly from the concentration-time data. • AUC0-T Area under the plasma concentration-time curve from time […] to the last time point with measurable concentrations, estimated bylinear trapezoidal rule. • AUC0-00 Area under the plasma concentration-time curve extrapolated to infinity, calculated using the formula: AUC0-00=AUC0-1+C0/λ0 • Where Ct is the last measurable concentration in plasma and λz is the terminal phase elimination rate constant estimated using log-linear regression during the terminal elimination phase. The number of points used in λz calculation was determined by visual inspection of the data describing the terminal phase. At lest the last three time points with measurable values were used in λz calculation. […]

Crl:CD(SD)IGS BR rats = assay: 14-day rat study with recovery; format: in vivo
Protocol: (§4) The purpose of this study was to evaluate the toxicity of HY2901 when administered via oral gavage to rats for at least 14 days and to assess the reversibility, persistence, or delayed occurrence of any effects after a recovery period of up to 14 days.
(§5) Male and female Crl:CD®(SD)IGS BR rats were assigned to seven groups, four main study groups and three groups for toxicokinetics. Each group received dose preparations containing 0.25% methylcellulose, 400 cps in 200 mM acetate buffer, or 10, 30, or 150 mg of test article/kg of body weight (mg/kg/day) at a dose volume of 5 mL/kg.
(§6) Assessment of toxicity was based on mortality, clinical and ophthalmic observations, body weights, food consumption, clinical pathology, organ weights, and macroscopic and microscopic findings. Blood samples were collected for toxicokinetic evaluation.

[5] = 14-day rat study with recovery; format: in vivo; conditions: both sexes, Crl:CD(SD)IGS BR, rat, in vivo, po
Protocol: as §4, §5, §6

telemetered Beagle dogs = assay: ECG and arterial blood pressure in telemetered Beagle dogs; format: in vivo, dog
Protocol: To determine if HY2901 could produce any changes in QT interval, the compound was studied in telemetered Beagle dogs. Dogs were implanted with devices to continuously monitor ECG and arterial blood pressure. Dogs (groups of 4) were studied in a Latin square cross-over design, with each dog receiving 3 different doses and a placebo. Two studies were conducted with doses of 0.3, 1, 3, 10, and 30 mg/kg. […] The tachycardia persisted for 6–8 hours postdose at 0.3 and 1 mg/kg. A ceiling effect to the heart rate increase seemed to exist with heart rates peaking at approximately 150–160 in both the 10 and 30 mg/kg dose groups.

[6] = Plasma pharmacokinetics in cynomolgus monkeys; format: in vivo; conditions: cynomolgus monkey, 3 mg/kg
Text: as §3
Dose proportionality following study medication is explored by analyzing natural log-transformed pharmacokinetic variables AUC(0-t), AUC(0-inf), and Cmax with a linear model including the natural log-transformed dose as covariates. […] The following parameters were estimated: • Cmax Maximum plasma concentration. • Tmax Time to maximum concentration. • Cmax and Tmax were reported directly from the concentration-time data. • AUC0-T Area under the plasma concentration-time curve from time […] to the last time point with measurable concentrations, estimated bylinear trapezoidal rule. • AUC0-00 Area under the plasma concentration-time curve extrapolated to infinity, calculated using the formula: AUC0-00=AUC0-1+C0/λ0 • Where Ct is the last measurable concentration in plasma and λz is the terminal phase elimination rate constant estimated using log-linear regression during the terminal elimination phase. […]

For `CC(CC(=O)O)N1CCC(=C2c3ccc(F)cc3COc3ccccc32)CC1` (stereo not drawn) [Compound 37], the “percentage inhibition of specific binding” value (Sigma, Non-selective) was 13.27%, the “percentage inhibition of specific binding” value [1] was 2.51% and the percentage inhibition (Esterase, Acetylcholine) was 2.54%. The inhibition at 1 µM (Endothelin, ET-A (h)) was 10.2%, the inhibition at 1 µM (Angiotensin II, AT1 (h)) was 12% and the inhibition at 1 µM [2] was -2.98%. For the same compound, the percentage inhibition [3] was 4.24%, the inhibition at 1 µM (GABA-B) was 2.17% and the inhibition at 1 µM (Histamine, H2) was 0.8%. The inhibition at 1 µM (Testosterone (cytosolic)) was 0.24%.

With `CC(C)(CN1CCC(=C2c3ccc(F)cc3COc3ccccc32)CC1)C(=O)O` [Compound 49a] the “inhibition of CYP 2C9 activity” value (CYP 2C9) was “did not inhibit”, the half-life ([4]; plasma, rat, 3 mg/kg) was 1.1 h and the Tmax ([4]; plasma, rat, 3 mg/kg, after oral administration) was 0.25 h. The Peak plasma levels ([4]; rats, most efficacious dose of 3 mg/kg in the sleep assay) was “less than 1.5 mM”, the mean body weight (Crl:CD(SD)IGS BR rats; 150 mg/kg/day males) was “depression in mean body weight of the 150 mg/kg/day males” and the “mean weights of thymus, lung, and heart” value (Crl:CD(SD)IGS BR rats; 150 mg/kg/day males, terminal sacrifice) was “significantly low relative to brain weight”. For the same compound, the food consumption (Crl:CD(SD)IGS BR rats; 150 mg/kg/day, Week 1) was “depression in food consumption in 150 mg/kg/day rats in Week 1”, the “expected pharmacological effects (clinical signs)” value (Crl:CD(SD)IGS BR rats; 10, 30, or 150 mg/kg/day) was “hypoactivity, ataxia, and the appearance of sleep, were commonly observed” and the unscheduled deaths (Crl:CD(SD)IGS BR rats; 10, 30, or 150 mg/kg/day, 14 days) was “largely restricted to the 150 mg/kg/day groups”. For the same compound, the ophthalmic observations (Crl:CD(SD)IGS BR rats; all groups) was “No ophthalmic lesions”, the clinical pathology findings (Crl:CD(SD)IGS BR rats; rat, in vivo) was “unrelated to treatment” and the “increases in Cmax and AUC(0-t) with dose” value (Crl:CD(SD)IGS BR rats; rat, in vivo) was “greater than dose proportional”. For the same compound, the “accumulation after multiple dosing” value (Crl:CD(SD)IGS BR rats; rats) was “Minimum accumulation”, the “macroscopic and microscopic findings” value (Crl:CD(SD)IGS BR rats; terminal and recovery sacrifice rats) was “No treatment-related macroscopic observations or microscopic toxic effects” and the NOAEL at 14 days [5] was 30 mg/kg/day. For the same compound, the “persistence of tachycardia postdose” value (telemetered Beagle dogs; 0.3 and 1 mg/kg) was 6 to 8 h, the peak heart rate (telemetered Beagle dogs; 10 and 30 mg/kg dose groups) was 150–160 and the “QT or corrected QT interval” value (telemetered Beagle dogs; doses of 0.3, 1, 3, 10, and 30 mg/kg) was “no changes in QT or corrected QT interval at any dose”. The heart rate effect (telemetered Beagle dogs; doses of 0.3 to 30 mg/kg, intravenous or oral) was “dose-related sinus tachycardia”, the persistence of tachycardia (telemetered Beagle dogs; higher doses) was 10 to 12 h and the blood pressure (telemetered Beagle dogs; paralleled the tachycardia) was “slight increase in blood pressure”. The half-life [6] was 4.4 h and the Tmax ([6]; after oral administration) was 1.5 h.
